Reference: patent US10590129B2 (Incozen Therapeutics Pvt. Ltd., priority 2010, dated 2020)
Structures can show the parent of a compound that is named as a salt.

Test system: MKN-45 cells
Assay: Inhibition of MKN-45 proliferation (MTT)
Format: cell-based, human
Conditions: for inhibition at 0.1 µM / inhibition at 1 µM / GI50: Homo sapiens, MKN-45, MKN-45 proliferation; for inhibition at 0.1 µM / Inhibition (% Inhibition of MKN-45 proliferation): 0.1 μM
Protocol: Inhibition of MKN-45 Proliferation:
Cell proliferation assays were carried out using the high Met expressing human gastric adenocarcinoma cell line, MKN-45, according to the following schedule:
Day 1: Cells were plated in 96-well plates in complete growth medium.
Day 2: Compounds at desired concentrations were added.
Day 5: Cell viability was determined using the 3-[4,5-dimethylthiazol-2-yl]-2,5-diphenyltetrazolium bromide (MTT) dye reduction test.

GI50 | SMILES | inhibition at 0.1 µM | inhibition at 1 µM (1 μM) | further results
≤ 50 nM | CCNC(=O)c1ccc(-c2ccc3nnn(Cc4cc5cccnc5cc4F)c3n2)cc1Cl [Ex 133, 2-Chloro-N-ethyl-4-(3-((7-fluoroquinolin-6-yl)methyl)-3H-[1,2,3]triazolo[4,5-b]pyridin-5-yl)benzamide] | 75 to 100% | – | –
50 to 150 nM | Cc1cc(-c2ccc3nnn(Cc4ccc5ncccc5c4)c3n2)ccc1C(N)=O [Ex 142, 2-Methyl-4-(3-(quinolin-6-ylmethyl)-3H-[1,2,3]triazolo[4,5-b]pyridin-5-yl)benzamide] | 75 to 100% | – | –
50 to 150 nM | c1cnc2ccc(Cn3nnc4ccc(-c5cn[nH]c5)nc43)cc2c1 [Ex 143, 6-((5-(1H-Pyrazol-4-yl)-3H-[1,2,3]triazolo[4,5-b]pyridin-3-yl)methyl)quinoline] | – | – | –
50 to 150 nM | Cn1cc(-c2ccc3nnn(Cc4ccc5ncccc5c4)c3n2)cn1 [Ex 144, 6-((5-(1-Methyl-1H-pyrazol-4-yl)-3H-[1,2,3]triazolo[4,5-b]pyridin-3-yl)methyl)quinoline] | – | – | –
150 to 500 nM | Cc1n[nH]c2cc(-c3ccc4nnn(Cc5ccc6ncccc6c5)c4n3)ccc12 [Ex 168, 6-((5-(3-Methyl-1H-indazol-6-yl)-3H-[1,2,3]triazolo[4,5-b]pyridin-3-yl)methyl)quinoline] | – | – | –
< 1000 nM | c1cnc2ccc(Cn3nnc4ccc(-c5ccc6[nH]ccc6c5)nc43)cc2c1 [Ex 169, 6-((5-(1H-Indol-5-yl)-3H-[1,2,3]triazolo[4,5-b]pyridin-3-yl)methyl)quinoline] | – | – | –
< 1000 nM | c1cnc2ccc(Cn3nnc4ccc(-c5ccc6cc[nH]c6c5)nc43)cc2c1 [Ex 170, 6-((5-(1H-Indol-6-yl)-3H-[1,2,3]triazolo[4,5-b]pyridin-3-yl)methyl)quinoline] | – | – | –
150 to 500 nM | Clc1cc(-c2ccc3nnn(Cc4ccc5ncccc5c4)c3n2)ccn1 [Ex 171, 6-((5-(2-Chloropyridin-4-yl)-3H-[1,2,3]triazolo[4,5-b]pyridin-3-yl)methyl)quinoline] | – | – | –
< 1000 nM | Cc1n[nH]c2ccc(-c3ccc4nnn(Cc5ccc6ncccc6c5)c4n3)cc12 [Ex 172, 6-((5-(3-Methyl-1H-indazol-5-yl)-3H-[1,2,3]triazolo[4,5-b]pyridin-3-yl)methyl)quinoline] | – | – | –
< 1000 nM | c1cncc(-c2ccc3nnn(Cc4ccc5ncccc5c4)c3n2)c1 [Ex 173, 6-((5-(Pyridin-3-yl)-3H-[1,2,3]triazolo[4,5-b]pyridin-3-yl)methyl)quinoline] | – | – | –
150 to 500 nM | c1cnc2ccc(Cn3nnc4ccc(-c5cnn([C@H]6CCNC6)c5)nc43)cc2c1 [Ex 175, (S)-6-((5-(1-(Pyrrolidin-3-yl)-1H-pyrazol-4-yl)-3H-[1,2,3]triazolo[4,5-b]pyridin-3-yl)methyl)quinoline hydrochloride] | – | – | –
< 1000 nM | c1cnc2ccc(Cn3nnc4ccc(-c5cnn(CCN6CCOCC6)c5)nc43)cc2c1 [Ex 176, 4-(2-(4-(3-(Quinolin-6-ylmethyl)-3H-[1,2,3]triazolo[4,5-b]pyridin-5-yl)-1H-pyrazol-1-yl)ethyl)morpholine hydrochloride] | – | – | –
< 1000 nM | c1cnc2ccc(Cn3nnc4ccc(-c5cnn(C6CCOCC6)c5)nc43)cc2c1 [Ex 177, 6-((5-(1-(Tetrahydro-2H-pyran-4-yl)-1H-pyrazol-4-yl)-3H-[1,2,3]triazolo[4,5-b]pyridin-3-yl)methyl)quinoline] | – | – | –
150 to 500 nM | Cc1nn(C)c2cc(-c3ccc4nnn(Cc5ccc6ncccc6c5)c4n3)ccc12 [Ex 179, 6-((5-(1,3-dimethyl-1H-indazol-6-yl)-3H-[1,2,3]triazolo[4,5-b]pyridin-3-yl)methyl)quinoline] | – | – | –

The next lines start with the compound.

SMILES | GI50 | inhibition at 0.1 µM | inhibition at 1 µM (1 μM) | further results
NC(=O)c1ccc(-c2ccc3nnn(Cc4ccc5ncccc5c4)c3n2)cc1F [Ex 74, 2-Fluoro-4-(3-(quinolin-6-ylmethyl)-3H-[1,2,3]triazolo[4,5-b]pyridin-5-yl)benzamide hydrochloride] | – | 50 to 75% | 50 to 75% | –
CC(C)(c1ccc2ncccc2c1)n1nnc2ccc(-c3ccc(C(N)=O)c(F)c3)nc21 [Ex 84, 2-Fluoro-4-(3-(2-(quinolin-6-yl)propan-2-yl)-3H-[1,2,3]triazolo[4,5-b]pyridin-5-yl)benzamide] | – | < 25% | < 25% | –
O=C(NC1CC1)c1ccc(-c2ccc3nnn(Cc4ccc5c(ccc[n+]5[O-])c4)c3n2)cc1F [Ex 88, 6-((5-(4-(Cyclopropylcarbamoyl)-3-fluorophenyl)-3H-[1,2,3]triazolo[4,5-b]pyridin-3-yl)methyl)quinoline 1-oxide] | – | < 25% | < 25% | –
CN(C)CCCNC(=O)c1ccc(-c2ccc3nnn(Cc4ccc5ncccc5c4)c3n2)cc1F [Ex 121, N-(3-(dimethylamino)propyl)-2-fluoro-4-(3-(quinolin-6-ylmethyl)-3H-[1,2,3]triazolo[4,5-b]pyridin-5-yl)benzamide dihydrochloride] | – | – | < 25% | Inhibition (% Inhibition of MKN-45 proliferation) (MKN-45 proliferation, dihydrochloride): A (A = ≥75 to 100%)
Cl.NC(=O)c1ccc(-c2ccc3nnn(Cc4ccc5ncccc5c4)c3n2)cc1Cl [Ex 123, 2-Chloro-4-(3-(quinolin-6-ylmethyl)-3H-[1,2,3]triazolo[4,5-b]pyridin-5-yl)benzamide hydrochloride] | – | – | – | Inhibition (% Inhibition of MKN-45 proliferation) (MKN-45 proliferation): B (B = ≥50-<75%)
NCCCNC(=O)c1ccc(-c2ccc3nnn(Cc4ccc5ncccc5c4)c3n2)cc1F [Ex 125, N-(3-Aminopropyl)-2-fluoro-4-(3-(quinolin-6-ylmethyl)-3H-[1,2,3]triazolo[4,5-b]pyridin-5-yl)benzamide dihydrochloride] | – | < 25% | < 25% | –
CN(C)CCCNC(=O)c1ccc(-c2ccc3nnn(Cc4ccc5ncccc5c4)c3n2)cc1Cl [Ex 126, 2-Chloro-N-(3-(dimethylamino)propyl)-4-(3-(quinolin-6-ylmethyl)-3H-[1,2,3]triazolo[4,5-b]pyridin-5-yl)benzamide dihydrochloride] | – | 75 to 100% | – | –
Cl.O=C(Nc1nc[nH]n1)c1ccc(-c2ccc3nnn(Cc4ccc5ncccc5c4)c3n2)cc1F [Ex 127, 2-Fluoro-4-(3-(quinolin-6-ylmethyl)-3H-[1,2,3]triazolo[4,5-b]pyridin-5-yl)-N-(1H-1,2,4-triazol-3-yl)benzamide hydrochloride] | – | – | 75 to 100% | Inhibition (% Inhibition of MKN-45 proliferation) (MKN-45 proliferation): A (A = ≥75 to 100%)
COC(=O)c1ccc(-c2ccc3nnn(Cc4cc5cccnc5cc4F)c3n2)cc1F [Ex 135, Methyl 2-fluoro-4-(3-((7-fluoroquinolin-6-yl)methyl)-3H-[1,2,3]triazolo[4,5-b]pyridin-5-yl)benzoate] | – | < 25% | – | –
NC(=O)c1cccc(-c2ccc3nnn(Cc4ccc5ncccc5c4)c3n2)c1 [Ex 138, 3-(3-(Quinolin-6-ylmethyl)-3H-[1,2,3]triazolo[4,5-b]pyridin-5-yl)benzamide] | – | 25 to 50% | 75 to 100% | –
Cl.NC(=O)c1ccc(-c2ccc3nnn(Cc4cc5cccnc5cc4F)c3n2)cc1F [Ex 141, 2-Fluoro-4-(3-((7-fluoroquinolin-6-yl)methyl)-3H-[1,2,3]triazolo[4,5-b]pyridin-5-yl)benzamide hydrochloride] | – | – | – | Inhibition (% Inhibition of MKN-45 proliferation) (MKN-45 proliferation): A (A = ≥75 to 100%); % inhibition @ 1 uM (MKN-45 proliferation, 1 μM): A (A = ≥75 to 100%)
CCc1nn(C(=O)OC(C)(C)C)c2cc(-c3ccc4nnn(Cc5ccc6ncccc6c5)c4n3)ccc12 [Ex 181, tert-Butyl 3-ethyl-6-(3-(quinolin-6-ylmethyl)-3H-[1,2,3]triazolo[4,5-b]pyridin-5-yl)-1H-indazole-1-carboxylate] | – | < 25% | 75 to 100% | –
